Measurements from patent publication US20250241313A1, “APPLICATION OF ACTIVE SUBSTANCE IN IMPROVING SEED VIGOR AND METHOD FOR IMPROVING SEED VIGOR” (HUNAN HYBRID RICE RESEARCH CENTER, priority 2024, published 2025).

How the values were obtained:
Type in all cases: in vivo
corn seeds = assay: Corn seed germination (seed vigor) after seed soaking; conditions: for Average germination index / average germination potential / Average germination rate: corn seeds soaked 24 hours in 0.3 mM aqueous solution; for average germination potential: first 5 days; for Average germination rate: within 7 days
Protocol: (§1) In the following examples, the relative activity index is calculated by the following formula: • (1) average germination rate: ×100% (total number of germinated seeds/total number of tested seeds within 7 days); • (2) average germination potential: ×100% (total number of germinated seeds/total number of tested seeds in the first 5 days); • (3) average germination index: Σ(number of sprouts per day/[…]); • (4) statistical P-value: generally, X represents the statistical quantity of the test, and when H0 is true, the value C of the statistical quantity can be calculated from the sample data, and the P value can be obtained from the specific distribution of the test statistical quantity X. Specifically, the P value of the left test is the probability that the test statistic X is smaller than the sample statistic C, i.e.: P=P {X<C} the P value for the right-side test is the probability that the test statistic X is greater than the sample statistic C: P=P {X>C} the P value of the two-sided test is 2 times the probability that the test statistic X falls within the tail region where the sample statistic C is an endpoint: P=2P {X>C} (when C is located at the right end of the distribution curve) or P=2P {X<C} (when C is located at the left end of the distribution curve) if X obeys a normal distribution and a t-distribution, the distribution curve is symmetric about the vertical axis, so its P value can be represented as P=P {|X|>C}; • after the P-value has been calculated, a test can be concluded by comparing a given significance level a to the P-value: rejecting the original hypothesis if a>P value; if a≤P value, the original assumption is accepted at significance level a. […]

tobacco seeds = assay: Tobacco seed germination (seed vigor) after seed soaking; conditions: for Average germination index / average germination potential / Average germination rate: tobacco seeds soaked 24 hours in 0.3 mM aqueous solution; for average germination potential: first 5 days; for Average germination rate: within 7 days
Protocol: as §1

rice seeds = assay: Rice seed germination (seed vigor) after seed soaking
Protocol: as §1

tomato seeds = assay: Tomato seed germination (seed vigor) after seed soaking; conditions: for Average germination index / average germination potential / Average germination rate: tomato seeds soaked 24 hours in 0.3 mM aqueous solution; for average germination potential: first 5 days; for Average germination rate: within 7 days
Protocol: as §1

wheat seeds = assay: Wheat seed germination (seed vigor) after seed soaking; conditions: for Average germination index / average germination potential / Average germination rate: wheat seeds soaked 24 hours in 0.3 mM aqueous solution; for average germination potential: first 5 days; for Average germination rate: within 7 days
Protocol: as §1

[1] = rice seeds soaked 24 hours in 0.3 mM aqueous solution
[2] = rice seeds soaked 24 hours in 0.3 mM aqueous solution, germinated in the first 5 days
[3] = rice seeds soaked 24 hours in 0.3 mM aqueous solution, germinated within 7 days, 3 parallel groups

## C=C(OP(=O)(O)O)C(=O)O.NC1CCCCC1 [PEP-cyclohexylammonium salt, cyclohexylammonium phosphoenolpyruvate]
Corn seeds
  Average germination index: 10.25 ^
  average germination potential: 60%
  Average germination rate: 58%
Tobacco seeds
  Average germination index: 10.53
  average germination potential: 65%
  Average germination rate: 68%
Rice seeds; [1]
  Average germination index: 10.82
Rice seeds; [2]
  average germination potential: 66%
Rice seeds; [3]
  Average germination rate: 70%
Rice seeds; rice seeds, 1.1 mM aqueous solution
  Average germination index: 9.82
Rice seeds; rice seeds, 1.1 mM aqueous solution, first 5 days
  average germination potential: 64%
Rice seeds; rice seeds, 1.1 mM aqueous solution, within 7 days
  Average germination rate: 62%
Tomato seeds
  Average germination index: 10.23
  average germination potential: 65%
  Average germination rate: 66%
Wheat seeds
  Average germination index: 5.067
  average germination potential: 19%
  Average germination rate: 21%

## C=C(OP(=O)([O-])O)C(=O)O.[K+] [PEP-K salt, potassium phosphoenolpyruvate]
Corn seeds
  Average germination index: 14.5 ^
  average germination potential: 70%
  Average germination rate: 68%
Tobacco seeds
  Average germination index: 11.83
  average germination potential: 64%
  Average germination rate: 66%
Rice seeds; [1]
  Average germination index: 10.76
Rice seeds; [2]
  average germination potential: 64%
Rice seeds; [3]
  Average germination rate: 68%
Rice seeds; rice seeds, 0.5 mM aqueous solution
  Average germination index: 10.76
Rice seeds; rice seeds, 0.5 mM aqueous solution, first 5 days
  average germination potential: 64%
Rice seeds; rice seeds, 0.5 mM aqueous solution, within 7 days
  Average germination rate: 68%
Tomato seeds
  Average germination index: 10.73
  average germination potential: 64%
  Average germination rate: 65%
Wheat seeds
  Average germination index: 6.333
  average germination potential: 21%
  Average germination rate: 22%

## C=C(OP(=O)(O)O)C(=O)O [PEP, phosphoenolpyruvate]
Corn seeds
  Average germination index: 14.2 ^
  average germination potential: 70%
  Average germination rate: 68%
Corn seeds; corn seeds, 0.3 mM, day 7
  germination condition and root growth versus water control (FIG. 6-7): the root growth of the corn seeds can be accelerated
Tobacco seeds
  Average germination index: 12.78
  average germination potential: 64%
  Average germination rate: 70%
Tobacco seeds; tobacco seeds, 0.3 mM, day 7
  germination condition and root system growth versus water control (FIG. 9): the root system growth of the tobacco seeds can be accelerated
Rice seeds; [1]
  Average germination index: 11.04
Rice seeds; [2]
  average germination potential: 66%
Rice seeds; [3]
  Average germination rate: 72%
Rice seeds; rice seeds, 0.09 mM aqueous solution
  Average germination index: 8.43
Rice seeds; rice seeds, 0.09 mM aqueous solution, first 5 days
  average germination potential: 61%
Rice seeds; rice seeds, 0.09 mM aqueous solution, within 7 days
  Average germination rate: 63%
Rice seeds; rice seeds, 0.2 mM aqueous solution
  Average germination index: 11.04
Rice seeds; rice seeds, 0.2 mM aqueous solution, first 5 days
  average germination potential: 66%
Rice seeds; rice seeds, 0.2 mM aqueous solution, within 7 days
  Average germination rate: 72%
Rice seeds; rice seeds, 0.3 mM, day 4 and day 7
  germination condition and root system / leaf growth versus water control (FIG. 1-3): significantly accelerate the growth of the root system and leaf of rice seeds
Tomato seeds
  Average germination index: 9.783
  average germination potential: 59%
  Average germination rate: 60%
Tomato seeds; tomato seeds, 0.3 mM, day 7
  germination condition and root system growth versus water control (FIG. 8): the root system growth of the tomato seeds can be accelerated
Wheat seeds
  Average germination index: 6.367
  average germination potential: 24%
  Average germination rate: 24%
Wheat seeds; wheat seeds, 0.3 mM, day 7
  germination condition and root growth versus water control (FIG. 4-5): the root growth of the wheat seeds can be accelerated
